Test results from BindingDB's records for doi:10.1016/j.bmcl.2017.05.024 (Yeungnam University, 2017).

Biological target: Hypoxia-inducible factor 1-alpha (Homo sapiens, UniProt Q16665)
Experiment: ChEBML_1685544
Description: Inhibition of hypoxia-induced HIF1alpha (unknown origin) transcriptional activity expressed in human HCT116 cells by HRE luciferase reporter gene assay

Chain of Hypoxia-inducible factor 1-alpha (Q16665 whole entry): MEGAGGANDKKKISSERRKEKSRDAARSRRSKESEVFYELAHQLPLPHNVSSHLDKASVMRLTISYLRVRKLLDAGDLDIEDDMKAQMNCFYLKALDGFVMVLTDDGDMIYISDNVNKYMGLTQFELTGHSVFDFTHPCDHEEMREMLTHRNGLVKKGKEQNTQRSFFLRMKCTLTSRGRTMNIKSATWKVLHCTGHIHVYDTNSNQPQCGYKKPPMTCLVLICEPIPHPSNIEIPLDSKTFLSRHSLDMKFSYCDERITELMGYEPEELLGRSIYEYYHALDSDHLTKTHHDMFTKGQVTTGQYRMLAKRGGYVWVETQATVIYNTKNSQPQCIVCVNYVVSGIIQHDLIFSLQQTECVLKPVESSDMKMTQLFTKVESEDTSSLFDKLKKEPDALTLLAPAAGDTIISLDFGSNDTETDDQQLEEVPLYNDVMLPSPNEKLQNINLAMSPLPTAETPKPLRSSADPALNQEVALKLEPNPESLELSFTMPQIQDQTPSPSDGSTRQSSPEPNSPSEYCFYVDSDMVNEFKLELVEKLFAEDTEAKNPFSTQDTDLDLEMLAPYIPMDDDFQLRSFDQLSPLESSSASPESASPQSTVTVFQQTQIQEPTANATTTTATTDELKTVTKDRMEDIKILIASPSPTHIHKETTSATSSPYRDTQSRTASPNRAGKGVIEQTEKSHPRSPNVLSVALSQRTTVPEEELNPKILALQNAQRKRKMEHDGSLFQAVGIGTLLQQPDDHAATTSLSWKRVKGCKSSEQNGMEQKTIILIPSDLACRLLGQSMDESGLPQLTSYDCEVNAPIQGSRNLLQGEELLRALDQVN

Row | SMILES | IC50 [µM]
1 | CO/N=C(/C(=O)OC)c1ccccc1COc1cccc(OCc2cc(C(F)(F)F)cc(C(F)(F)F)c2)c1 | 0.94
2 | C=Cc1ccc(COc2cccc(OCc3ccccc3/C(=N\OC)C(=O)OC)c2)cc1 | 0.87
3 | CO/N=C(/C(=O)OC)c1ccccc1COc1cccc(OCc2ccc(Cl)cc2)c1 | 0.6
4 | CO/N=C/c1ccc(OC)c(OCc2ccccc2/C(=N\OC)C(=O)OC)c1 | 14.9
5 | CO/N=C(\C)c1cccc(OCc2ccccc2/C(=N\OC)C(=O)OC)c1 | 4.52
6 | CO/N=C/c1cccc(OCc2ccccc2/C(=N\OC)C(=O)OC)c1 | 3.4
7 | CO/N=C(/C(=O)OC)c1ccccc1COc1cccc(OCC#N)c1 | > 20
8 | CO/N=C(/C(=O)OC)c1ccccc1COc1cccc(OCc2ccccc2)c1 | 1.12
9 | CO/N=C(/C(=O)OC)c1ccccc1COc1cccc(O)c1 | 9.16
